Data on 11 compounds can be found in patent publication US8937050B2, “Methods and compositions for treatment of autism” (The Johns Hopkins University, priority 2011, dated 2015).

The test system of one assay is FL-SMN mRNA. Description: RT-PCR of FL-SMN and total SMN mRNA in spinal muscular atrophy fibroblasts. The conditions noted are these: effect of co-treatment with stress pathway inhibitor; FIG. 8B. The format is cell-based, human. The procedure:
Following the manufacturer's protocols, DNase I-treated cDNA was synthesized using Superscript III or Thermoscript reverse transcriptase (Invitrogen). PCR reactions were performed in duplicate on the Roche Lightcycler 3.5 (Basel, Switzerland) or the Bio-Rad iCycler (Hercules, Calif.) using Quantitech SYBR green PCR mix (Qiagen, Valencia, Calif.). GeNorm software calculated a normalization factor for each sample using the relative amounts of at least two of the following reference genes, β2-microglobulin, […], actin, and/or eukaryotic elongation factor 1A (Vandesompele et al., 2002). Primers for the various experiments described herein are listed below.
Type I and type III spinal muscular atrophy (SMA I or SMA III) fibroblasts were treated with SFN for the indicated times. The relative fold increase in the ratio of FL-SMN/total SMN transcripts compared with the untreated cell line (normalized to 1) is plotted. Cell lines from left to right are GM09677, GM00232 and 2906. N≧2 independent experiments.
Spinal muscular atrophy fibroblasts were treated with 1.5 mM SFN alone for 51 hr. (SMA I, GM09677) or treated with 0.5 mM SFN for 8 hr. (SMA III, 2906) with or without […] SP600125 (JNK inhibitor), 2.5 mM 3-methyladenine (autophagy inhibitor, APG), […] antimycin A (mitochondrial inhibitor, MITO) or […] sirtinol (SIRT1 inhibitor). The fold increases in FL-SMN expression compared with either GAPDH or total SMN expression and the fold increase in total SMN expression compared with GAPDH expression after SFN treatment is plotted. Untreated values were normalized to 1 and are indicated by the horizontal line. (n=1 per cell line, performed in duplicate)
To determine which stress pathways are necessary for the increase in FL-SMN production, spinal muscular atrophy fibroblasts were co-treated with SFN and either SP600125, an inhibitor of the JNK pathway (Bennett et al., 2001), 3-methyladenine, an inhibitor of the autophagy pathway (Seglen et al., 1982), antimycin A, a mitochondrial inhibitor (Ranganathan et al., 2009), or sirtinol, an inhibitor of SIRT1 activity (Grozinger et al., 2001). […] SIRT1, an NAD+-dependent deacetylase, is known to regulate cellular stress responses, cellular metabolism and cellular survival (Salminen et al., 2009). Specifically, SIRT1 inhibition reduces the induction of HSR genes (Westerheide et al., 2009); SIRT1 activity enhances SOD2 expression (Anastasiou et al., 2006); SIRT1 negatively regulates the mammalian target of rapamycin triggering autophagy (Haigis et al., 2010); and SIRT1 activates mitochondrial biogenesis via the stress-responsive transcription factor PGC1a (Yu et al., 2009). The yeast ortholog Sir2 is necessary for the induction of mitochondrial biogenesis by 4PBA or HU in Saccharomyces cerevisiae (Cha 2010). […] However, SIRT1 can be activated by various post-translational changes. Therefore, the potential involvement of SIRT1 in the therapeutic effects of these drugs by inhibition studies was evaluated.

Assay [1] deals with XALD fibroblasts. Description: Inhibition studies: ATP5B immunofluorescence of drug-induced mitochondrial biogenesis. The format is cell-based, human. The conditions noted are these: inhibitor added before 4PBA, HU, TSA or SFN; XALD fibroblasts. As for the experimental part: Performed as described in Watkins et al., 1995 using 4% formaldehyde, 1% Triton X-100, primary antibody anti-ATP5B (Millipore, Billerica, Mass.) or anti-ABCD3 (Invitrogen, Carlsbad, Calif.), and secondary antibody sheep anti-mouse IgG FITC-conjugated (Santa Cruz Biotechnology, Santa Cruz, Calif.) or goat anti-rabbit IgG rhodamine-conjugated (Jackson ImmunoResearch, West Grove, Pa.).
Antimycin A (10 ng/mL), LY294002, PD98059, RO-31-8425, SB203580, SP600125, and L-NAME were obtained from Sigma. Compound C was from EMD Biosciences (Darmstadt, Germany). Human fibroblasts were treated with each inhibitor. Then, 45-75 min later, either 4PBA, HU, TSA, or SFN was added. Cells were stained four to six days after treatment with one of the small molecules. As a control for inhibitors dissolved in DMSO, fibroblasts were treated with an equivalent amount of DMSO in the absence of inhibitor. […]
In FIGS. 2A-B, the JNK inhibitor SP600125 (10 μM+inh) was utilized. […] XALD fibroblasts were treated with each drug for four days with or without SP600125. (400× magnification). […] Normal human fibroblasts were treated with each of the small four molecules with or without SP600125 for six days. Quantitative in-cell western analyses were performed using anti-ATP5B.

For assay [2], the system named is K562 cells. Description: Flow cytometric analysis of mitochondrial mass (Mitotracker). The format is cell-based, human. The conditions noted are these: FIG. 1C. The procedure: (§1) Fibroblasts (70-95% confluent) were treated with 5 mM 4PBA (1 mM for JNK inhibition studies), 600 μM HU, 200 nM TSA, or 5 μM SFN unless otherwise specified.
(§2) K562 cells were incubated with 50 nM Mitotracker Green FM, 300 nM Mitotracker Deep Red 633 (Invitrogen), or PBS as a negative control for 15 min at 37° C. or stained with anti-Pex14 using Caltag Fix and Perm reagents (Invitrogen) following the manufacturer's instructions. Stained cells were suspended in 0.5 mL of 1% paraformaldehyde/PBS and subjected to flow cytometric analysis (FACScan machine, Becton Dickinson, Franklin Lakes, N.J.).
(§3) K562 cells were treated with SB and HU for four to ten days. […] (n≧3 unless otherwise noted).
To determine whether the induction of mitochondrial biogenesis by SB or HU treatment was necessary for the induction of HbF-producing cell production, K562 cells were treated with SB or HU in the presence or absence of AA. […] After two to four days of drug treatment with or without AA, mitochondrial mass was measured using Mitotracker, a mitochondrial stain. Fold change (drug treated/control) is shown. […] After four days of drug treatment with or without AA, cells were stained with DAF. The relative number of cells producing HbF (DAF stained cells) were plotted. […] After eight to ten days of drug treatment, peroxisome proliferation was measured using an antibody against the peroxisomal membrane protein, PEX14 and a FITC-labeled secondary antibody. Fold change (drug treated/control) is shown. In FIGS. 1C, 1D, and 1E, the * represents a statistically significant increase in a measurement between drug treated and control samples or a statistically significant decrease in a measurement between drug treated and drug treated samples in the presence of AA (p≦0.05) (Bars=SEM). This finding indicates dependence of the beneficial effect (i.e., elevated HbF levels) on induced mitochondrial biogenesis. Thus, the therapeutic effects observed in SCD may involve the pharmacological induction of mitochondrial biogenesis by SB or HU. […]
(In general: In flow cytometry, cells or beads pass a laser one at a time.)

Assay [3] concerns K562 cells. The assay can be described thus: Flow cytometric analysis of peroxisome proliferation (PEX14). The format is cell-based, human. The conditions noted are these: eight to ten days, FIG. 1E. As for the experimental part: as §1, §2, §3
To determine whether the induction of mitochondrial biogenesis by SB or HU treatment was necessary for the induction of HbF-producing cell production, K562 cells were treated with SB or HU in the presence or absence of AA. […] After two to four days of drug treatment with or without AA, mitochondrial mass was measured using Mitotracker, a mitochondrial stain. Fold change (drug treated/control) is shown. […] After four days of drug treatment with or without AA, cells were stained with DAF. […] After eight to ten days of drug treatment, peroxisome proliferation was measured using an antibody against the peroxisomal membrane protein, PEX14 and a FITC-labeled secondary antibody. […]

Assay [4] deals with K562 cells. Description: HbF-producing cell production (DAF staining). The format is cell-based, human. The conditions noted are these: FIG. 1D. As for the experimental part: as §1
K562 cells were suspended in 1.1 mL media and 240 μL of DAF [working solution 50 μL 2,7diaminofluorene (DAF) stock (50 μg DAF in 5 mL 90% glacial acetic acid), 50 μL 30% hydrogen peroxide, and 2.5 ml 200 mM Tris-HCl, pH 7.0]. DAF stained hemoglobinized cells were scored using a hemocytometer.
as §3
To determine whether the induction of mitochondrial biogenesis by SB or HU treatment was necessary for the induction of HbF-producing cell production, K562 cells were treated with SB or HU in the presence or absence of AA. […] After two to four days of drug treatment with or without AA, mitochondrial mass was measured using Mitotracker, a mitochondrial stain. Fold change (drug treated/control) is shown. […] After four days of drug treatment with or without AA, cells were stained with DAF. The relative number of cells producing HbF (DAF stained cells) were plotted. […] After eight to ten days of drug treatment, peroxisome proliferation was measured using an antibody against the peroxisomal membrane protein, PEX14 and a FITC-labeled secondary antibody. Fold change (drug treated/control) is shown. In FIGS. 1C, 1D, and 1E, the * represents a statistically significant increase in a measurement between drug treated and control samples or a statistically significant decrease in a measurement between drug treated and drug treated samples in the presence of AA (p≦0.05) (Bars=SEM). This finding indicates dependence of the beneficial effect (i.e., elevated HbF levels) on induced mitochondrial biogenesis. Thus, the therapeutic effects observed in SCD may involve the pharmacological induction of mitochondrial biogenesis by SB or HU.
K562 cells were treated for four days with HU in the presence or absence of SP600125 or PBS as a control (CON). […]

The subject of a further assay is HbF. The conditions noted are these: Keefer et al., 2006; cited from earlier work.
For assay [5], the system named is XALD fibroblasts. Description: Fatty acid β-oxidation of 1-14C-labeled fatty acids. The format is cell-based, human. As for the experimental part:
Fatty acid β-oxidation activity in XALD fibroblasts was determined by measuring their capacity to degrade 1-^14C-labeled fatty acids to water-soluble products as described in McGuiness et al., 2003.
4PBA-induced peroxisomal VLCFA β-oxidation (degradation) is dependent on mitochondrial long chain fatty acid (LCFA) β-oxidation (McGuinness et al., 2003). […] Antimycin A (AA) is a cytochrome c reductase inhibitor that inhibits the mitochondrial electron transport chain, mitochondrial biogenesis, and thus, cellular respiration (Ranganathan et al., 2009). […] XALD fibroblasts were treated with 4PBA in the presence or absence of antimycin A (AA), a cytochrome c reductase inhibitor, for five days and β-oxidation levels of LCFA (C16:0) and VLCFA (C24:0) levels were measured.

The mark [6] stands for this setting: K562 cells, 1.2 mM SB or 100 μM HU.

Take `CC(NC(=O)c1ccccc1/N=C/c1c(O)ccc2ccccc12)c1ccccc1` (stereo not drawn) [sirtinol]: the “increase in FL-SMN transcript levels in SFN-treated spinal muscular atrophy fibroblasts” value (“increase in FL-SMN transcript levels” below) in the assay with FL-SMN mRNA is given as “prevented”.
Consider `COc1cc(C[C@H]2C(=O)OC[C@@H]2Cc2ccc(OC)c(OC)c2)ccc1O` [arctigenin], for which, in the assay on XALD fibroblasts [1], the “Inhibits Mitochondrial Biogenesis?” value is given as “no”.
Same read-out and setting: to `COC(=O)[C@@H](N)CCCNC(=N)N[N+](=O)[O-]` [L-NAME] belongs “no”.
With `CCCC(=O)[O-].[Na+]` [SB, Sodium butyrate], the mitochondrial mass result with K562 cells [2] (setting [6]) is “significantly increased”. Besides, the peroxisomal proliferation result with K562 cells [3] is on record as “significantly increased”. The “number of HbF-producing cells” value with K562 cells [4] (setting [6]) is “significantly increased”. For the same compound, the HbF levels result with HbF is reported as “increased”.
Regarding `Cn1cnc(N)c2ncnc1-2` [3-methyladenine], in the assay on FL-SMN mRNA, the “increase in FL-SMN transcript levels” value was “prevented”.
On to Antimycin A [AA], for which the “induction of peroxisomal VLCFA β-oxidation” value with XALD fibroblasts [5] (4PBA in the presence of AA) was “blocked”. For the same compound, the “4PBA-induction of mitochondrial LCFA β-oxidation” value in the assay on XALD fibroblasts [5] (in the presence of AA (10 ng/mL)) was “inhibited”. Further, the “induction of mitochondrial biogenesis by SB or HU treatment” value with K562 cells [2] (effect of co-treatment with AA) is recorded as “significantly inhibited”. In addition, the “induction of HbF-producing cells by SB or HU treatment” value in the assay with K562 cells [4] (effect of co-treatment with AA) is “significantly inhibited”. Further, the “increase in FL-SMN transcript levels” value with FL-SMN mRNA is on record as “prevented”.
Regarding `N#CC(=C(/N)Sc1ccccc1N)/C(C#N)=C(\N)Sc1ccccc1N` [U0126], in the assay on XALD fibroblasts [1], the “Inhibits Mitochondrial Biogenesis?” value is recorded as “no”.
Still for that read-out and setting: to `C[S+]([O-])c1ccc(-c2nc(-c3ccncc3)c(-c3ccc(F)cc3)[nH]2)cc1` (stereo not drawn) [SB203580] belongs “no”; to `Cn1cc(C2=C(c3c4n(c5ccccc35)CCC(CN)C4)C(=O)NC2=O)c2ccccc21` (stereo not drawn) [RO-21-8425], “no”; to `c1cc(-c2cnn3cc(-c4ccc(OCCN5CCCCC5)cc4)cnc23)ccn1` [compound C], “no”.
Take `COc1cccc(-c2cc(=O)c3ccccc3o2)c1N` [PD98059]: the “Inhibits Mitochondrial Biogenesis?” value in the assay with XALD fibroblasts [1] was “no”.
